Patent publication US7718385B2, “Bioactivation of alkylating agents for cancer treatment” (priority 2003, dated 2010)
Like-named read-outs stand apart in the source and are kept apart here.

Columns and labels:
recombinant rat AOR = recombinant rat AOR (Rattus norvegicus, UniProt P97584, Q160G/Q263G/Q264G/Q276G)
Method: Varied concentrations of illudin M were added to a 200 μl 0.5× phosphate buffered saline (PBS) solution containing 115 ng of AOR and 43.4 nmoles NADPH, and incubated for 1 minute at 37° C. Reactions were then extracted with ethyl acetate containing piperine (internal standard), dried under vacuum, resuspended in HPLC buffer A (60% acetonitrile: 40% water), and injected into a Hewlett-Packard 1050 HPLC system equipped with a Luna C18 column (Phenomenex Inc.). Metabolites were separated using buffer A at a flow rate of 1 ml/min and quantified using diode array detection at 205 nm and previously reported extinction coefficients (Tanaka, et al., 1990). Vmax and Km were calculated using the HYPER program.
Rates were quantified from metabolite peak areas using reported extinction coefficients (Tanaka, et al., 1990; McMorris, et al., 1999).

recombinant AOR = molecular target: T1, recombinant AOR (Rattus norvegicus, UniProt P97584, Q160G/Q263G/Q264G/Q276G); experiment: LC/MS/MS of enzymatic and nonenzymatic GSH adducts; type: biochemical
T1 construct: made in house
T1 sequence (P97584 whole entry Q160G/Q263G/Q264G/Q276G): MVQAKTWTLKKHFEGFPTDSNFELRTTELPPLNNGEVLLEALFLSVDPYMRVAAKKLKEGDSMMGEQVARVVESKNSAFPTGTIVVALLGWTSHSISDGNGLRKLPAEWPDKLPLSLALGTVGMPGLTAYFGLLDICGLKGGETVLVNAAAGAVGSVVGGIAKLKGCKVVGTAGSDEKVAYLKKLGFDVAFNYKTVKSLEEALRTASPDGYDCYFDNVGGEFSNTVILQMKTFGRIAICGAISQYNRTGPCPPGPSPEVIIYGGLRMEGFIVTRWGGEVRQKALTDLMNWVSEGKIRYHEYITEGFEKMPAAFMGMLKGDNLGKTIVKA
Method: High Performance Liquid Chromatography with Tandem Mass Spectrometry (LC/MS/MS) of GSA Adducts. […] These reactions were incubated at 37° C. for 1 h. Controls lacking NAFPH were performed. Reactions were stopped and deproteinized with addition of 400 μl of ice-cold acetonitrile, spun at 3500×g for 10 min at 4° C., and the supernatants were evaporated to dryness under vacuum. Residual GSH and NADPH cofactors were removed using an Oasis C18 sample prep column (Waters Chromatography). Adducts were eluted with methanol, evaporated to dryness under vacuum, resuspended in […] of 0.1% acetic acid, and detected using liquid chromatography electrospray ionization tandem mass spectrometry performed in the positive ion mode. […] A flow rate of 0.1 ml/min and gradient of 0% buffer D (70% acetic acid (0.1%):30% acetonitrile) to 100% buffer E (20% acetic acid (0.1%):80% acetonitrile) over 30 min were used to resolve the compounds. Adducts were detected by monitoring for selected molecular ions or characteristic molecular fragments after MS/MS. Molecular fragments were obtained with 35% relative collusion energy.
Measuring GSH adduction is a commonly used technique for estimating covalent protein binding, and thus cytotoxicity, of a drug (Baillie and Kassahun, 2001). The nucleophilic thiol moiety of GSH effectively scavenges electrophilic molecules and its large size and charge prevent it from entering the active site of most enzymes. […] Daughter ions of adducts, which represent the loss of water (−18 m/z) or […] (−129 m/z), were common and monitored for in these experiments following MS/MS.
Enzymatic reduction occurred in incubations containing recombinant AOR, NADPH, and GSH, while companion nonenzymatic reductions lacked NADPH. […] However the NE irofulven-GSH adduct (FIG. 5B) was detected only after monitoring for a daughter ion (M+—H2)=536 m/z) and was 42-fold less abundant than the E adduct. […] Contrary to findings with irofulven, a great deal of NE illudin M-GSH adduct was detected in NADPH-deficient incubations.

recombinant rat AOR, sequence (P97584 whole entry Q160G/Q263G/Q264G/Q276G): as above

| Compound | effect on AOR-mediated activation of irofulven (293 cells) | effect on cell growth (293 cells; 100 μM, alone) | Km (recombinant rat AOR) [µM] | maximal rate of metabolism by AOR (recombinant rat AOR) [µmol/min/mg] | Km (recombinant rat AOR; formation of Product 5) [µM] | Vmax (recombinant rat AOR; formation of Product 5) | Km (recombinant rat AOR; formation of Product 6) [µM] | Vmax (recombinant rat AOR; formation of Product 6) | NE GSH adduct detected (recombinant AOR; NADPH-deficient incubations) | abundance of E (enzymatic) GSH adduct over NE (nonenzymatic) adduct (recombinant AOR; incubations with AOR, GSH and NADPH, 1 h, 37° C.) [fold] | Km (recombinant rat AOR; formation of Product 3) [µM] | Vmax (recombinant rat AOR; formation of Product 3) | Km (recombinant rat AOR; formation of Product 4) [µM] | Vmax (recombinant rat AOR; formation of Product 4) | CC50 (293 cells; read-out: LC50 (concentration required to produce 50 percent lethality), 293 cells, 24 h, MTT assay) [nM] |
| --- | --- | --- | --- | --- | --- | --- | --- | --- | --- | --- | --- | --- | --- | --- | --- |
| O=c1oc2ccccc2c(O)c1Cc1c(O)c2ccccc2oc1=O [dicumarol, Dicumarol] | attenuated partially | no effect on cell growth |  |  |  |  |  |  |  |  |  |  |  |  |  |
| CC1=C2C(=C[C@@](C)(CO)[C@@H]2O)C(=O)[C@](C)(O)C12CC2 [Illudin S] |  |  | 308 | 115.9 | 486 | 65,400 nmol/min/mg | 308 | 50,500 nmol/min/mg |  |  |  |  |  |  |  |
| CC1=C2C(=CC(C)(C)[C@@H]2O)C(=O)[C@](C)(O)C12CC2 [Illudin M] |  |  | 109 | 44.1 |  |  |  |  | a great deal | 14 | 109 | 29,200 nmol/min/mg | 113 | 14,900 nmol/min/mg | ~1000 |
